No end group written: not given here.
Key:
[1] = tested on: CaCo2 monolayers (tight junctions); experiment: Inhibition of agonist-induced decrease in trans epithelial electric resistance (TEER) of CaCo2 monolayers; details: inhibition of the reduction in TEER induced by SEQ ID NO:70 (FCIGRL); CaCo2 monolayers
From the text: (§1) Measurement of the Inhibition of the Decrease in Trans Epithelial Electric Resistance (TEER) and Epithelial Flux of a Fluorescent Marker Lucifer Yellow
(§2) Antagonists of tight junctions can be identified by their ability to prevent or decrease the enhancement of the flux of compounds (e.g. Lucifer Yellow) through the monolayer induced by agonists of tight junctions (e.g., SEQ ID NO: 70). Antagonists of tight junctions can also be identified by their ability to prevent the decrease in TEER induced by agonists of tight junctions (e.g., SEQ ID NO: 70).
(§3) Tight junction antagonists can be identified using the following method:
(§4) Prepare Modified Hank's Balanced Salt Solution (MHBSS) by obtaining IL bottle of HBSS removing 10 ml of HBSS and replacing it with 10 ml HEPES buffer pH 7.0. Adjust pH to 7.4±0.1 using concentrated NaOH (10N).
(§5) Remove Caco-2 cells from incubator, grown on 12-well, […], polycarbonate Transwell® filters (Corning) and record passage number, date cells seeded and age in days.
(§6) Aspirate cell culture medium from both the apical (AP) and basolateral (BL) compartments, replacing with 0.5 ml and 1.5 ml of MHBSS, respectively. Incubate cells at 37° C. for 30 minutes.
Using the MilliCell®-ERS instrument (Millipore), measure and record the transepithelial electrical resistance (TEER) across each filter and record.
(§7) Prepare a stock solution of the Antagonist Pretreatment Solution by dissolving the appropriate amount of antagonist in MHBSS. Vortex or sonicate the solution until it is clear then adjust pH to 7.4±0.1 using 1N NaOH. Preincubate each filter for 30 min with these solutions at 37° C. and 50 RPM.
(§8) Prepare stock solutions of Antagonist Treatment Solution by dissolving appropriate amounts of antagonist and agonist (for example, a peptide agonist such as a peptide having the sequence FCIGRL (SEQ ID NO: 70)) in 7.5 mM Lucifer Yellow solution in MHBSS. Vortex or sonicate the solution until it is clear then adjust pH to 7.4±0.1 using 1N NaOH.
(§9) Aspirate Antagonist Pretreatment Solution from the apical compartment of each filter (n=3 per condition) and replace with 0.5 ml of control and test solutions.
(§10) Place all plates into incubator set at 37° C. (±0.2), 50 RPM (±5) for a total of 180 minutes.
At t=30, 60, 120 and 180 minutes, measure and record the transepithelial electrical resistance (TEER) across each filter using the MilliCell-ERS instrument.
(§11) Cells: Caco-2 cells passage 40-60 grown on Transwell® plates for 21-28 days
(§12) SEQ ID NO: 70 is a 6-mer peptide tight junction agonist having the sequence FCIGRL. See US patent publication US 2005/0059593 A1. In the following tables + indicates attenuation of the effects of the tight junction agonist were observed and − indicates no attenuation of the effects of the tight junction agonist were observed.

[2] = tested on: CaCo2 monolayers (tight junctions); experiment: Inhibition of agonist-induced Lucifer Yellow flux through CaCo2 monolayers; details: inhibition of the increase in Lucifer Yellow permeability induced by SEQ ID NO:70 (FCIGRL); CaCo2 monolayers
From the text: as §1, §2, §3, §4, §5, §6, §7, §8, §9, §10
At t=60, 120 and 180 minutes remove 100 μl from each basolateral compartment and place it in a 96-well plate for Lucifer Yellow analysis, replace with 100 μl of HBSS.
Make a Lucifer Yellow standard curve with the following dilutions (7500 μM, 3750 μM, 750 μM, 375 μM, 75 μM, 37.5 μM, 7.5 μM, 3.75 μM, 0.75 μM) and pipette 100 μL of each into a 96-well plate except for the first three standards mentioned above which require a 1:10 dilution prior to transferring to the 96-well plate.
At t=0 make 1:10 dilutions of each starting Antagonist Treatment Solution mentioned above and pipette 100 μL of each into a 96-well plate.
At t=180 make 1:10 dilutions of Antagonist Treatment Solution from the apical compartment of each filter and pipette 100 μL of each into the 96-well plate.
Analyze each 96-well plate in a Tecan Spectra Fluor Plus using Magellan at 485 and 535 nm.
as §11, §12

Substance	Prevented TEER Reduction [1]	Reduced LY Permeability [2]
Gly-Pro-Gly (GPG; Tight junction antagonist) [SEQ ID NO: 22]	+	+
His-Pro-Gly (HPG; Tight junction antagonist) [SEQ ID NO: 18]	+	+
Ile-Pro-Gly (IPG; Tight junction antagonist) [SEQ ID NO: 31]	+	+
Leu-Pro-Gly (LPG; Tight junction antagonist) [SEQ ID NO: 25]	+	+
Leu-Val-Gln-Pro-Gly (LVQPG; Tight junction antagonist) [SEQ ID NO: 4]	+	+
Lys-Pro-Gly (KPG; Tight junction antagonist) [SEQ ID NO: 24]	+	+
Met-Pro-Gly (MPG; Tight junction antagonist) [SEQ ID NO: 26]	+	+
Phe-Pro-Gly (FPG; Tight junction antagonist) [SEQ ID NO: 21]	+	+
Pro-Pro-Gly (PPG; Tight junction antagonist) [SEQ ID NO: 33]	−	−
Ser-Pro-Gly (SPG; Tight junction antagonist) [SEQ ID NO: 28]	+	+
Thr-Pro-Gly (TPG; Tight junction antagonist) [SEQ ID NO: 30]	−	+
Trp-Pro-Gly (WPG; Tight junction antagonist) [SEQ ID NO: 32]	+	+
Tyr-Pro-Gly (YPG; Tight junction antagonist) [SEQ ID NO: 29]	+	+
VLVQPG [SEQ ID NO: 3]	+	+
Val-Gln-Pro-Gly (VQPG; Tight junction antagonist) [SEQ ID NO: 5]	+	+
Val-Pro-Gly (VPG; Tight junction antagonist) [SEQ ID NO: 34]	−	+
